In ChEMBL document CHEMBL1921674, “Novel tricyclic inhibitors of IKK2: discovery and SAR leading to the identification of 2-methoxy-N-((6-(1-methyl-4-(methylamino)-1,6-dihydroimidazo[4,5-d]pyrrolo[2,3-b]pyridin-7-yl)pyridin-2-yl)methyl)acetamide (BMS-066)” (Bioorg Med Chem Lett, 2011):
Activity calls are given as the source filed them. The rule behind the calls is not given here.

Assays:
[1] = Half life in Lewis rat at 2 mg/kg, iv; assay type: ADME, organism-based; design: dose 2 mg/kg, route intravenous; conditions: in vivo
[2] = Clearance in dog at 1 mg/kg, iv; assay type: ADME, organism-based, Canis lupus familiaris; design: dose 1 mg/kg, route intravenous; conditions: in vivo
[3] = target: Vascular endothelial growth factor receptor 2 (Homo sapiens, UniProt P35968); conditions: 10 uM
Description: Inhibition of KDR at 10 uM

Cytochrome P450 3A4 = Cytochrome P450 3A4 (Homo sapiens, UniProt P08684); assay: Inhibition of CYP3A4; assay type: ADME
Mus musculus = assay: Reduction in TNBS-induced colitis in mouse […] model assessed as decrease of body weight loss at 10 mg/kg, administered intrarectally 1 day before TNBS challenge twice daily for 4 days; assay type: functional, organism-based; design: dose 10 mg/kg
hERG (KCNH2) = hERG (KCNH2) (Homo sapiens, UniProt Q12809); assay: Inhibition of human ERG at 30 uM by patch clamp assay
[4] = target: T1, Proto-oncogene tyrosine-protein kinase receptor Ret (Homo sapiens, UniProt P07949); assay: Inhibition of RET at 10 uM
[5] = target: Inhibitor of nuclear factor kappa-B kinase subunit alpha (Homo sapiens) (UniProt O15111); assay: Inhibition of IKK1 at 10 uM
[6] = AUC in dog at 5 mg/kg, po; assay type: ADME, organism-based, Canis lupus familiaris; design: dose 5 mg/kg, route oral; conditions: plasma
[7] = Protein binding in human serum; assay type: ADME, cell-free; conditions: read-out: PB (converted)
[8] = Volume of distribution at steady state in mouse at 2 mg/kg, iv; assay type: ADME, organism-based; design: dose 2 mg/kg, route intravenous; conditions: in vivo, read-out: Vdss
[9] = Volume of distribution at steady state in dog at 1 mg/kg, iv; assay type: ADME, organism-based, Canis lupus familiaris; design: dose 1 mg/kg, route intravenous; conditions: in vivo, read-out: Vdss
[10] = Protein binding in rat serum; assay type: ADME, cell-free; conditions: read-out: PB (converted)
[11] = Cmax in Lewis rat at 10 mg/kg, po; assay type: ADME, organism-based; design: dose 10 mg/kg, route oral; conditions: in vivo
[12] = Clearance in Lewis rat at 2 mg/kg, iv; assay type: ADME, organism-based; design: dose 2 mg/kg, route intravenous; conditions: in vivo
[13] = AUC in Sprague-Dawley rat liver at 2 mg/kg, iv after 8 hrs; assay type: ADME, organism-based; design: time < 8 hr, dose 2 mg/kg, route intravenous
[14] = target: Ephrin type-B receptor 1 (Homo sapiens) (UniProt P54762); assay: Inhibition of EphB1 at 10 uM
[15] = Protein binding in mouse serum; assay type: ADME, cell-free; conditions: read-out: PB (converted)
[16] = target: T1, Proto-oncogene tyrosine-protein kinase receptor Ret; assay: Inhibition of RET
[17] = AUC in SJL mouse intestine at 8 mg/kg, iv after 8 hrs; assay type: ADME, organism-based; design: time < 8 hr, dose 8 mg/kg, route intravenous
[18] = Half life in dog at 1 mg/kg, iv; assay type: ADME, organism-based, Canis lupus familiaris; design: dose 1 mg/kg, route intravenous; conditions: in vivo
[19] = AUC in Lewis rat at 10 mg/kg, po; assay type: ADME, organism-based; design: dose 10 mg/kg, route oral; conditions: plasma
[20] = Lipophilicity, log P of the compound by HPLC analysis; assay type: physicochemical

T1 sequence (P07949 whole entry): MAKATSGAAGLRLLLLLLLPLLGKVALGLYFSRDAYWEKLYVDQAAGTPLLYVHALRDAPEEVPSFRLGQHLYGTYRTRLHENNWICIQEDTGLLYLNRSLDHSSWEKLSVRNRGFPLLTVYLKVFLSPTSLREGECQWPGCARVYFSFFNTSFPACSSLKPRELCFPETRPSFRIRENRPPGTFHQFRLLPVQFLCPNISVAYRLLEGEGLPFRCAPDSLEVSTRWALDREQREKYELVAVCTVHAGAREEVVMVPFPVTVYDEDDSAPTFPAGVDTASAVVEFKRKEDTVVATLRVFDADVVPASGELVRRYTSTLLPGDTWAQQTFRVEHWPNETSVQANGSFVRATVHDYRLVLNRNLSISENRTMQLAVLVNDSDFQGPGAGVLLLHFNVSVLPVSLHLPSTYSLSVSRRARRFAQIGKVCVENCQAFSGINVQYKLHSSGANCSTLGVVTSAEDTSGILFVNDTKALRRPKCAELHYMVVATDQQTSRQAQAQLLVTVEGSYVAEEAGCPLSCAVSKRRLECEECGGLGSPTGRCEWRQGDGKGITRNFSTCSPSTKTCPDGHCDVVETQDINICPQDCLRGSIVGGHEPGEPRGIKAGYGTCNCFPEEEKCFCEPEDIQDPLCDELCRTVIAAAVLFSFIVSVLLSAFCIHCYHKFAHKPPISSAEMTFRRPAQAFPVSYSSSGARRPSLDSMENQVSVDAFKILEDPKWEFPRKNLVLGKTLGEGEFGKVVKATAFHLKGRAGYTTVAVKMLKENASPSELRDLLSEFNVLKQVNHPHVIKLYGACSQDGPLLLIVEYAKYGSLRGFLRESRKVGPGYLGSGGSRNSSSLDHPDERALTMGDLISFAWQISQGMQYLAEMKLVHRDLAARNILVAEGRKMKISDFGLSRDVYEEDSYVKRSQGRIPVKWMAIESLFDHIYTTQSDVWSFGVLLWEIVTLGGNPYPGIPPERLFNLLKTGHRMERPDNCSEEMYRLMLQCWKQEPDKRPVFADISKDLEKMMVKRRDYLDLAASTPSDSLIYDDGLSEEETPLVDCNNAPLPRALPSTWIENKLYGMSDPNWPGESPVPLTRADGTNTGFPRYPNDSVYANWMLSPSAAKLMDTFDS
Chain of Ephrin type-B receptor 1 (Homo sapiens) (P54762 whole entry): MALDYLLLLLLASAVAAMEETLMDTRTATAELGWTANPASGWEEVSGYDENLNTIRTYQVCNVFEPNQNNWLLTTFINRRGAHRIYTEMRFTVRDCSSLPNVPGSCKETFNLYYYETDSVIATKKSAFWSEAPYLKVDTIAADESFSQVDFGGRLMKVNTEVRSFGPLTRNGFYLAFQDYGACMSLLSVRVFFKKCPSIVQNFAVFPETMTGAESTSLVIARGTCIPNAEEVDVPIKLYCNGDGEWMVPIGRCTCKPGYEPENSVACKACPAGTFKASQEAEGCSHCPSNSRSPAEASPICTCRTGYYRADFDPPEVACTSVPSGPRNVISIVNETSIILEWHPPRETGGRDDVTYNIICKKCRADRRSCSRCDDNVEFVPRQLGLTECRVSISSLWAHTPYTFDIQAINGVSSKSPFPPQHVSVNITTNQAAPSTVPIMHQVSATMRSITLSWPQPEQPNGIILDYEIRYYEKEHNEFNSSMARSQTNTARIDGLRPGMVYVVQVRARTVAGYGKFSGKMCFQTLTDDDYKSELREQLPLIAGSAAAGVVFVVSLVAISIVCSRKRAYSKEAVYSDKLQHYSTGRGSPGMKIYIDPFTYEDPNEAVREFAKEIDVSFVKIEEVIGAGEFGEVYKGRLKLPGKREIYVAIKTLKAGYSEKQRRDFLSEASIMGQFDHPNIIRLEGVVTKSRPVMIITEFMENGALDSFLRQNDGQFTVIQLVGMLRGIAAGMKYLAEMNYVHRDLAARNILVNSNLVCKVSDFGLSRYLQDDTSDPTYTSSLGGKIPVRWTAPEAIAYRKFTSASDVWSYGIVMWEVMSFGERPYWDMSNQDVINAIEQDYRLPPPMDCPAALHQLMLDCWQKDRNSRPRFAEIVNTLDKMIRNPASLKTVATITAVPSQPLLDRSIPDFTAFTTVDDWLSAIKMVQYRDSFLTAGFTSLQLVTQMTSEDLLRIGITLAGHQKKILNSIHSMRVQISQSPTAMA
Chain of Cytochrome P450 3A4 (P08684 whole entry): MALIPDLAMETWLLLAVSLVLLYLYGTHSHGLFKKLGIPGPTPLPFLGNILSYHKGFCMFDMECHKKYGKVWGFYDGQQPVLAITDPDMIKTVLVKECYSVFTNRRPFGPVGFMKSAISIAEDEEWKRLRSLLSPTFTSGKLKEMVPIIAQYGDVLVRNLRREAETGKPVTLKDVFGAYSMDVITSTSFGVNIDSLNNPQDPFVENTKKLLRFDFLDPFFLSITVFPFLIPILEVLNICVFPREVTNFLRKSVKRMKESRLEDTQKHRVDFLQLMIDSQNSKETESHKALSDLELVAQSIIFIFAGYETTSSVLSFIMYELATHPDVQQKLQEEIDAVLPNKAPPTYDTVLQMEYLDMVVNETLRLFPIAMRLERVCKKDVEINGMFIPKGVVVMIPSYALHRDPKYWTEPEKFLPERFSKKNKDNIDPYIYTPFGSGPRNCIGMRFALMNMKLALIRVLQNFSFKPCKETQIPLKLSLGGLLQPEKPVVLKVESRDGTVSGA
Chain of hERG (KCNH2) (Q12809 whole entry): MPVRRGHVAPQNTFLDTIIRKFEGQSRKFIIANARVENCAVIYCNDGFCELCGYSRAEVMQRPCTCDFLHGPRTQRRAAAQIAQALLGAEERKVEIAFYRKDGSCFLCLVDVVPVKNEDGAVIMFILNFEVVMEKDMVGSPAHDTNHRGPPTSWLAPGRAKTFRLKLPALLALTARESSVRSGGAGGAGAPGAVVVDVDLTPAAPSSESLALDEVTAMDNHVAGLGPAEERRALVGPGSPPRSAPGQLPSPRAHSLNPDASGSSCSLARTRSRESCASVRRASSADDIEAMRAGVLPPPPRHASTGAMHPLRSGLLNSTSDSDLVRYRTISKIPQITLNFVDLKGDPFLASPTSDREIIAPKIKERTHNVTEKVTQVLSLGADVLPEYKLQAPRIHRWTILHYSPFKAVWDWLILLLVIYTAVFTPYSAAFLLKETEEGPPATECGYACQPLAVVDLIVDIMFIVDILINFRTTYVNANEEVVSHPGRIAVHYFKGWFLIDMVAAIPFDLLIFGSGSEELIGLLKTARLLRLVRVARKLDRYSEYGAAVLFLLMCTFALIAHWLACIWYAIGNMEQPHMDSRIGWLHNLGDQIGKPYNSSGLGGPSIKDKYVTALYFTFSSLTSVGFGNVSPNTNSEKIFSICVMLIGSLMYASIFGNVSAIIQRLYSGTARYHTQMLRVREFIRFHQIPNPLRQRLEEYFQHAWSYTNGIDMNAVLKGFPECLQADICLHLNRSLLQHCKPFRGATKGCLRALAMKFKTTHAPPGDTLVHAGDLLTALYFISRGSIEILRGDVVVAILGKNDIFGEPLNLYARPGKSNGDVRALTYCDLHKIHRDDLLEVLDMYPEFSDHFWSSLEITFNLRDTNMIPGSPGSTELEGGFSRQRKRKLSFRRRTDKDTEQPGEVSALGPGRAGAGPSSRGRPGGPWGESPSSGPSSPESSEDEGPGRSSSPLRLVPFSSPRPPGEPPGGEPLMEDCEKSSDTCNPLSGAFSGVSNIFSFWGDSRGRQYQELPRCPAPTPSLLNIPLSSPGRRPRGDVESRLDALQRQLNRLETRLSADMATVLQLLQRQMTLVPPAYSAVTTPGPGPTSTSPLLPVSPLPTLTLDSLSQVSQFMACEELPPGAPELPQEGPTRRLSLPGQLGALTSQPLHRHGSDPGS
Chain of Vascular endothelial growth factor receptor 2 (P35968 whole entry): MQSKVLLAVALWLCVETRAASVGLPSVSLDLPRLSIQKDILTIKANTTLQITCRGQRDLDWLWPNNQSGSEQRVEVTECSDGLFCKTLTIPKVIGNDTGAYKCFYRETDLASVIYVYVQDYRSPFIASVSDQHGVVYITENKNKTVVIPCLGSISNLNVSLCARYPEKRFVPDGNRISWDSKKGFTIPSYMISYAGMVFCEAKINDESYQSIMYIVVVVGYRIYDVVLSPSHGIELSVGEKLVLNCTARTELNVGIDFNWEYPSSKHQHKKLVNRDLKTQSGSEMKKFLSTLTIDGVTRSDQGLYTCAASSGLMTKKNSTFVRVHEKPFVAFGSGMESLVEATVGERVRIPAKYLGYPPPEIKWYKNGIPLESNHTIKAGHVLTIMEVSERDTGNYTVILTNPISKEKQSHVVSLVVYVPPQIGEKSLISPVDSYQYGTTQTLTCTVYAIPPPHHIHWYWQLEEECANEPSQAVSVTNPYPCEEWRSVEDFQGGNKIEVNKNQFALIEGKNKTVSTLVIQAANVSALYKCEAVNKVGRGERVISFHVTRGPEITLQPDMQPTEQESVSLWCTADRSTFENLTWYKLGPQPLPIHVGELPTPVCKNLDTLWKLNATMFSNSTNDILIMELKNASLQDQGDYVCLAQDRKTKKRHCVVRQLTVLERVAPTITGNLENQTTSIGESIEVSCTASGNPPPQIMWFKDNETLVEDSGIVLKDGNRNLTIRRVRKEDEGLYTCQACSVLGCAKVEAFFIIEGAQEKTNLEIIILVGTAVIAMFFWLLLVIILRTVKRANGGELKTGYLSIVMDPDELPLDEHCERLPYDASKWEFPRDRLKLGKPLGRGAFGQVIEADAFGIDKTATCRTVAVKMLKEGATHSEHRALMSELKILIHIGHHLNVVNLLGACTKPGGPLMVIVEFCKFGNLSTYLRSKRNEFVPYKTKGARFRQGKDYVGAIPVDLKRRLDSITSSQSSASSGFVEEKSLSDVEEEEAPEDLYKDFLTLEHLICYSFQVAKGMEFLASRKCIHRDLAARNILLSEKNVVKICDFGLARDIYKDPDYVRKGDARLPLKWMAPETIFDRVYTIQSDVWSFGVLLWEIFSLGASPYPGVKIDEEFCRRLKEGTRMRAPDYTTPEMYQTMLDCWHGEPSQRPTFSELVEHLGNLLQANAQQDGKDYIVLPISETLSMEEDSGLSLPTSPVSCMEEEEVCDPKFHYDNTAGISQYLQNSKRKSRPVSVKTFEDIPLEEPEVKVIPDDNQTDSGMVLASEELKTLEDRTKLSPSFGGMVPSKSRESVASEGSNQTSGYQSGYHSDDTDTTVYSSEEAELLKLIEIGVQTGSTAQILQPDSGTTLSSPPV

CNc1nc2[nH]c(-c3cccc(CNC(=O)COC)n3)cc2c2c1ncn2C
half-life [1]: 3.7 h
clearance [2]: 3.1 mL/min/kg
inhibition [3]: > 75%
IC50 (Cytochrome P450 3A4): > 40000 nM
Activity (Mus musculus): Active
inhibition at 30 µM (hERG (KCNH2)): 18%
inhibition [4]: > 75%
inhibition [5]: > 75%
AUC [6]: 50 µM·h
fraction unbound [7]: 0.074
Vd [8]: 1.8 L/kg
Vd [9]: 0.6 L/kg
fraction unbound [10]: 0.069
Cmax [11]: 17.6 µM
clearance [12]: 4.5 mL/min/kg
AUC at 8 h [13]: 16 µM·h
inhibition [14]: > 75%
fraction unbound [15]: 0.084
IC50 [16]: 614 nM
AUC at 8 h [17]: 1170 µM·h
half-life [18]: 3.3 h
AUC [19]: 89 µM·h
logP [20]: 2
